Measured values: patent US20240207265A1, “TREATMENT OF CNS DISEASES WITH sGC STIMULATORS” (Tisento Therapeutics Inc., priority 2021, published 2024)

Columns and labels:
sGC = experiment: cGMP neuronal cell-based assay (rat primary neurons); conditions: rat primary hippocampal neurons, DETA-NO 10 μM or 30 μM, cGMP by LC-MS/MS; read-out: sGC Neuron EC50
Procedure: Rat primary neurons were isolated from fetuses of 18-day pregnant Sprague-Dawley females. The fetuses were collected in Hanks' balanced salt solution (HBSS) and brains were rapidly removed. The cerebral hippocampi were isolated and mechanically fragmented. Further tissue digestion was performed with 0.25% (wt/vol) trypsin solution in HBSS without Ca2+ and Mg2+ for 15 min at 37° C. After trypsination, cells were washed and resuspended in neurobasal medium supplemented with 0.5 mM L-glutamine, 12.5 uM glutamic acid, 2% B-27 and 100 U/mL penicillin, and 100 μg/mL streptomycin. Cells were plated at a density of 26×10^3 or 3×10^4 or 4×10^4 cells/well in a poly-D-lysine coated 384-well flat clear-bottom plate (Corning Cat No 354662). Cells were incubated 6-7 days at 37° C. in a humidified chamber with 5% CO2. Media was removed and cells were washed 1× with HBSS containing Ca2+ and Mg2+, and replaced with 40 uL HBSS containing 0.5 mM IBMX, and incubated for 15 minutes at 37° C. 10 uL of a 5× stock of test compounds with diethylenetriamine NONOate (DETA-NO) was added. Final concentration of DETA-NO was either 10 μM or 30 μM. Cells were incubated for 20 min at 37° C. Medium was removed, 50 uL of ice-cold 10% acetic acid was added, and incubated for 60 minutes at 4° C. Following centrifugation at 4° C. for 5 minutes at 1000×g to pellet cell debris, the supernatant was aspirated to a clean plate and the samples were analyzed for cGMP content. cGMP concentrations were determined from each sample using LC-MS/MS.
Concentration response data were analyzed using a 4-parameter fit (log (agonist) vs. response-variable slope). The EC50 was interpolated from the curve fit and is defined as the concentration at which the compound elicits 50% of its maximal response. When the experiment was carried out multiple times for a given compound, the geometrical mean of all experiments is reported.

[1] = Rat cerebrospinal fluid (CSF) pharmacokinetics; format: in vivo; conditions: male, Sprague-Dawley, rat CSF/unbound plasma
Procedure: PK in rats was determined following oral dosing. For the oral (PO) experiments, a group of 6 male Sprague-Dawley rats with an indwelling catheter placed in the cisterna magna were used. The PO group was dosed with 3.0, or 10 mg/kg of a compound formulated as a solution in PEG400 or suspension in 0.5% Tween 80 and 0.5% Methylcellulose in water. PO doses were administered by oral gavage and delivered to the stomach using a syringe and gavage tube. Following oral dosage administration, the gavage tube was flushed with approximately 0.5 mL of water to ensure complete delivery of the full dose.
Plasma samples were collected as follows: samples of CSF and blood were collected at 1 hour, 2, and optionally at 4 hours post-dosing. CSF samples (0.05 mL) were collected through the intracisternal catheter. Blood samples (0.25 mL) were collected through tail nick sampling. These samples were kept on ice until processed for plasma. Blood samples were centrifuged at 3200 rpm for 5 minutes at approximately 5° C. within 1 hour of collection. Plasma was directly transferred to individual Eppendorf tubes (0.125 mL). Plug caps were placed on the tubes and the tubes frozen at approximately −70° C. and stored until analysis. Plasma and CSF was collected and analyzed for the presence of a compound.
The compound in question and the internal standard were extracted from plasma by precipitation and from CSF by either precipitation or dilution. Samples were analyzed using liquid chromatography (LC) with tandem mass spectrometric detection (MS/MS) using electrospray ionization. The standard curve ranged from 0.1 to 1000 ng/mL. Results of the compounds described herein in this assay are illustrated in Table G below (for a 10 mg/kg dose and/or 3 mg/kg of the compound). Compound concentrations from several animals were combined to give the geometrical mean at each specific dosage and timepoint.
Kp,uu is defined as the concentration ratio of unbound drug in CSF to unbound drug in plasma. Unbound drug in plasma (or free plasma concentration) is calculated by multiplying the total plasma concentration by the unbound fraction as determined by plasma protein binding. The CSF concentration is then divided by the free plasma concentration to determine the Kp,uu. (See e.g., Di et al., J. Med. Chem., 56, 2-12 (2013))

SMILES	EC50 (sGC) [nM]	Kp uu at 1 h ([1]; PO 3 mg/kg)	Kp uu at 2 h ([1]; PO 3 mg/kg)	Kp uu at 4 h ([1]; PO 3 mg/kg)	Kp uu at 1 h ([1]; PO 10 mg/kg)	Kp uu at 2 h ([1]; PO 10 mg/kg)	Kp uu at 4 h ([1]; PO 10 mg/kg)
Oc1nc(-c2cn3ccnc3c(Cc3ccccc3)n2)ncc1F [Compound I-2, 2-(8-Benzylimidazo[1,2-a]pyrazin-6-yl)-5-fluoropyrimidin-4-ol]	100 to 1000	–	–	–	–	–	–
Cc1cc(F)c(Cc2nc(-c3nccc(O)n3)cn3ccnc23)cc1F [Compound I-15, 2-(8-(2,5-difluoro-4-methylbenzyl)imidazo[1,2-a]pyrazin-6-yl)pyrimidin-4-ol]	100 to 1000	–	–	–	–	–	–
Cc1cc(F)c(Cc2nc(-c3ncc(F)c(O)n3)cn3c(F)cnc23)cc1F [Compound I-18]	–	1 to 2	1 to 2	1 to 2	–	–	–
Oc1nc(-c2cn3ccnc3c(Cc3ccccc3F)n2)ncc1F [Compound I-21]	≤ 100	–	–	–	–	–	–
Cc1cc(F)c(Cc2nc(-c3ncc(F)c(O)n3)cn3ccnc23)cc1F [Compound I-14, 5-fluoro-2-(8-(2,5-difluoro-4-methylbenzyl)imidazo[1,2-a]pyrazin-6-yl)pyrimidin-4-ol]	≤ 100	> 3	> 3	> 3	> 3	> 3	2 to 3
Oc1nc(-c2cn3ccnc3c(Cc3cc(F)ccc3F)n2)ncc1Cl [Compound I-16, 5-chloro-2-(8-(2,5-difluorobenzyl)imidazo[1,2-a]pyrazin-6-yl)pyrimidin-4-ol]	≤ 100	> 3	> 3	> 3	–	–	–
Oc1nc(-c2cn3ccnc3c(Cc3cc(F)ccc3F)n2)ncc1F [Compound I-20, 5-fluoro-2-(8-(2,5-difluorobenzyl)imidazo[1,2-a]pyrazin-6-yl)pyrimidin-4-ol]	≤ 100	2 to 3	2 to 3	2 to 3	1 to 2	2 to 3	2 to 3

Further lines, results first:

EC50 (sGC) [nM]	Kp uu at 1 h ([1]; PO 3 mg/kg)	Kp uu at 2 h ([1]; PO 3 mg/kg)	Kp uu at 4 h ([1]; PO 3 mg/kg)	Kp uu at 1 h ([1]; PO 10 mg/kg)	Kp uu at 2 h ([1]; PO 10 mg/kg)	Kp uu at 4 h ([1]; PO 10 mg/kg)	SMILES
≤ 100	≤ 1	1 to 2	1 to 2	–	–	–	Oc1nc(-c2cn3ccnc3c(Cc3cccc(F)c3F)n2)ncc1F [Compound I-4, 2-(8-(2,3-Difluorobenzyl)imidazo[1,2-a]pyrazin-6-yl)-5-fluoropyrimidin-4-ol]
≤ 100	2 to 3	2 to 3	2 to 3	–	–	–	Oc1nc(-c2cn3c(F)cnc3c(Cc3cc(F)ccc3F)n2)ncc1F [Compound I-5]
≤ 100	–	–	–	–	–	–	Oc1nc(-c2cn3ncnc3c(Cc3ccccc3F)n2)ncc1F [Compound I-23]
≤ 100	–	–	–	–	–	–	Cc1cc(F)c(Cc2nc(-c3ncc(F)c(O)n3)cn3ncnc23)cc1F [Compound I-19, 5-Fluoro-2-(8-(2,5-difluoro-4-methylbenzyl)-[1,2,4]triazolo[1,5-a]pyrazin-6-yl)pyrimidin-4-ol]
